Here are results for four compounds from patent publication US10798893B2, “Induced chromosome doubling in plants” (Dow AgroSciences LLC, priority 2009, dated 2020).

Data set [1] deals with haploid germinated maize seedlings. An excerpt:
An exemplary cycloalkene, 1,2,3-Trimethoxy-4-(1S,6R)-6-nitro-cyclohex-3-enyl)-benzene, designated as compound 1 was used to determine double haploid efficiency, doubling rate by a coleoptile tip cutting, seedling soaking method. […] Data provided in Tables 1, 2 and 3 were generated using haploid seeds obtained through cross pollination of a maize line of interest with an inducer maize line.
The resulting maize seeds were sorted based on marker gene color.
Coleoptile tips in maize seedlings were cut and the seedlings were soaked in various chromosome doubling agents as shown in Table 1. Haploid maize seeds were germinated and the coleoptile tips were excised (1-2 mm). Seedlings that survived were transplanted and grown until tassels and silk formed. Plants that produced tassels and silk were self-pollinated. Seeds produced from the self-pollination were visually assessed for the marker to identify them as double haploid (dihaploid).

A further data set deals with rabbit. Particulars: cited from earlier work.
For the next data set, the system named is rats. The data set can be described thus: Dermal toxicity on rats. Type of data set: in vivo, rat. Particulars: 200 mg/kg.
Data set [2] deals with germinated haploid maize seedlings. The data set is described as follows: Foliar spray treatment of germinated haploid maize seedlings in soil at V1-V3 stage. It counts as in vivo. Here is the method:
Haploid maize seeds were planted in Sun Gro METRO-MIX® 306 planting mixture, which typically has a pH of 6.0 to 6.8 and an organic matter content of about 30 percent, in 72-well, plastic propagation flats (Dillen Products; Middlefield Ohio). When required to ensure good germination and healthy plants, a fungicide treatment and/or other chemical or physical treatment was applied. The plants were grown in a greenhouse with an approximate 15 hour photoperiod which was maintained at about 23-29° C. during the day and 22-28° C. during the night until they reached the V1-V3 growth stage. Nutrients and water were added on a regular basis and supplemental lighting was provided with overhead metal halide 1000-Watt lamps as necessary.
A weighed amount of compound 1, determined by the rate to be tested, was dissolved in 1.2 mL of dimethyl sulfoxide (DMSO) to obtain concentrated stock solutions. […] The concentrated stock solutions obtained were diluted with 10.8 mL of an aqueous mixture containing 1.25% v/v (volume/volume) Agri-dex Crop Oil Concentrate. Compound requirements are based upon a 12 mL application volume at a rate of 187 L/ha. Formulated compounds were applied to the plant material with an overhead Mandel track sprayer equipped with a 8002E nozzle calibrated to deliver 187 L/ha over an application area of 0.503 square meter at a spray height of 18 inches ([…]) above the average plant canopy height. Control plants were sprayed in the same manner with the solvent blank.
The treated plants and control plants were placed in a greenhouse, as described above, and watered by sub-irrigation to prevent wash-off of the test compounds. Approximately 14 days after treatment, the treated plants were transplanted to individual pots containing Sun Gro METRO-MIX® 360. Plants that produced tassels and silk were then self-pollinated to obtain dihaploid seed.
Table 3 illustrates the results of doubling rate after spray treatment with the chemicals of interest. […] The spray treated plant tassels and silks were synchronized well and the plants shed more pollen.

Where [3] appears, read: seedling soak, colchicine 0.06% w/v (rate cell empty).
The mark [4] stands for this setting: after transplanting, rate 25 μM.
The mark [5] stands for this setting: after transplanting, rate 125 μM.

Read-outs that look alike come from different tables or passages of the source.

For the compound `COc1cc2c(c(OC)c1OC)-c1ccc(OC)c(=O)cc1[C@@H](NC(C)=O)CC2` [Colchicine, colchicine], the “No. plants dead after TP” value in data set [1] (after transplanting, colchicine 0.06% w/v (rate cell empty)) is on record as 0. In data set [1] (setting [3]), this compound showed a No. plants alive of 38 and a No. plants dead of 27. Besides, the Eye irritation entry in the data set on rabbit was “about 1 %/3D”.

Turning to `COc1ccc([C@@H]2CC=CC[C@H]2[N+](=O)[O-])c(OC)c1OC` [Compound 1, 1,2,3-Trimethoxy-4-((1S,6R)-6-nitro-cyclohex-3-enyl)-benzene], in the data set with rats, the dermal toxicity result is reported as “No dermal toxicity was observed”. In addition, the “# plants dead after treatment” value in data set [2] (maize, in vivo) is 0. Further, the “No. plants dead after TP” value is 2 in data set [1] (maize, in vivo, 5 μM); 2 in data set [1] (maize, in vivo, 25 μM); 2 in data set [1] (maize, in vivo, 125 μM).

For `C#CC(C)(C)NC(=O)c1cc(Cl)cc(Cl)c1` [Pronamide, pronamide], the “# plants dead after treatment” value in data set [2] (spray, 35 g ai/ha) stood at 0; in data set [2] (spray, 140 g ai/ha) it was 0. The “No. plants dead after TP” value in data set [1] (after transplanting, rate 5 μM) is listed as 3; in data set [1] (setting [4]), 1; in data set [1] (setting [5]) it was 0.

As to `CC(C)OC(=O)Nc1cccc(Cl)c1` [Chlorpropham, chlorpropham], the “# plants dead after treatment” value is reported as 0 in data set [2] (spray, 70 g ai/ha) and 1 in data set [2] (spray, 280 g ai/ha). The “No. plants dead after TP” value in data set [1] (after transplanting, rate 5 μM) worked out at 0; in data set [1] (setting [4]) it was 0; in data set [1] (setting [5]), 0.
